Assay results taken from ChEMBL document CHEMBL4706632, “Development of Potential Antitumor Agents from the Scaffolds of Plant-Derived Terpenoid Lactones” (J Med Chem, 2020).
One block for each molecule: values may come before it.

How the values were obtained:
L1210 = assay: Cytotoxicity against mouse L1210 cells; format: functional, cell-based
PANC-1 = assay: Cytotoxicity against human Panc-1 cells incubated for 72 hrs by sulphorhodamine B assay; format: functional, cell-based; conditions: PANC-1, 72 h
SW1990 = assay: Antiproliferative activity against human SW1990 incubated for 72 hrs by sulphorhodamine B assay; format: functional, cell-based; conditions: SW1990, 72 h
MCF7 [1] = assay: Cytotoxicity against human MCF-7 cells incubated for 72 hrs by MTT assay; format: functional, cell-based; conditions: MCF7, 72 h
MDA-MB-231 [2] = assay: Cytotoxicity against human MDA-MB-231 cells incubated for 72 hrs by MTT assay; format: functional, cell-based; conditions: MDA-MB-231, 72 h
P388 [3] = assay: Antiproliferative activity against mouse P388 cells; format: functional, cell-based
A549 [4] = assay: Cytotoxicity against human A549 cells by SRB staining assay; format: functional, cell-based
HCT-15 = assay: Cytotoxicity against human HCT-15 cells by SRB staining assay; format: functional, cell-based
SK-MEL-2 = assay: Cytotoxicity against human SK-MEL-2 cells by SRB staining assay; format: functional, cell-based
SK-OV-3 = assay: Cytotoxicity against human SK-OV-3 cells by SRB staining assay; format: functional, cell-based
XF498 = assay: Cytotoxicity against human XF498 cells by SRB staining assay; format: functional, cell-based
[5] = Antiproliferative activity against human Panc-28 cells incubated for 72 hrs by MTT assay; format: functional, cell-based; conditions: MDA-Panc-28, 72 h
A2058 = assay: Cytotoxicity against human A2058 cells incubated for 48 hrs by MTT assay; format: functional, cell-based; conditions: A2058, 48 h
HT-29 = assay: Cytotoxicity against human HT-29 cells incubated for 48 hrs by MTT assay; format: functional, cell-based; conditions: HT-29, 48 h
MDA-MB-231 [6] = assay: Cytotoxicity against human MDA-MB-231 cells incubated for 48 hrs by MTT assay; format: functional, cell-based; conditions: MDA-MB-231, 48 h
[7] = Inhibition of PAFR in New Zealand rabbit platelets assessed as reduction in PAF-induced platelet aggregation measured within 5 mins by aggregometry analysis; format: tissue-based; conditions: Oryctolagus cuniculus
[8] = Inhibition of [3H]PAF-acether binding to PAFR in rabbit platelet plasma membranes incubated for 1 hr; format: cell membranes, Oryctolagus cuniculus, Cell membrane
P388 [9] = assay: Cytotoxicity against mouse P388 cells incubated for 48 hrs by MTT assay; format: functional, cell-based; conditions: P388, 48 h
MCF7 [10] = assay: Antiproliferative activity against human MCF7 cells incubated for 48 hrs by [3H]-thymidine incorporation assay; format: functional, cell-based
MDA-MB-435 = assay: Antiproliferative activity against human MDA-MB-435 cells incubated for 48 hrs by [3H]-thymidine incorporation assay; format: functional, cell-based
A549 [11] = assay: Antiproliferative activity against human A549 cells incubated for 72 hrs by Sulforhodamine B assay; format: functional, cell-based; conditions: A549, 72 h
A-431 = assay: Antiproliferative activity against human A-431 cells incubated for 72 hrs by Sulforhodamine B assay; format: functional, cell-based; conditions: A-431, 72 h
[12] = Antiproliferative activity against human U87-MG cells incubated for 72 hrs by Sulforhodamine B assay; format: functional, cell-based; conditions: U-87 MG
HepG2 [13] = assay: Cytotoxicity against human HepG2 cells incubated for 48 hrs by alamarblue reagent based assay; format: functional, cell-based; conditions: HepG2, 48 h
MCF7 [14] = assay: Cytotoxicity against human MCF7 cells incubated for 48 hrs by alamarblue reagent based assay; format: functional, cell-based; conditions: MCF7, 48 h
BGC-823 = assay: Cytotoxicity against human BGC-823 cells by MTT assay; format: functional, cell-based
HCT-116 = assay: Cytotoxicity against human HCT-116 cells by MTT assay; format: functional, cell-based
HepG2 [15] = assay: Cytotoxicity against human HepG2 cells by MTT assay; format: functional, cell-based

SMILES: C=C1[C@@H](O)[C@@]2(O)OC[C@@]34[C@H]1[C@@H](OC(=O)/C=C/CCCCCCCC)C(=O)O[C@@H]3C[C@H]1C(C)=CC(=O)[C@@H](O)[C@]1(C)[C@@H]24
IC50 (L1210): 90 nM

SMILES: CC1=CC(=O)[C@@H](O)[C@]2(C)[C@H]3[C@@H](O)[C@H](O)[C@@]4(C)OC[C@@]35[C@@H](C[C@@H]12)OC(=O)[C@H](O)[C@]54O
IC50 (PANC-1): 1300 nM | IC50 (SW1990): 2100 nM | IC50 (MCF7 [1]): 19000 nM | IC50 (MDA-MB-231 [2]): 24000 nM

IC50 (P388 [3]): 3.8 nM
SMILES: CC(=O)O[C@@H]1C[C@H](O)[C@@]23COC(O)[C@]1(C)[C@@H]2C[C@@H](O)[C@]1(C)[C@@H]3C(=O)C(O)[C@@]2(C)[C@H](c3ccoc3)C[C@H]3O[C@@]312 (stereo partly drawn)
IC50 (A549 [4]): 75 nM | IC50 (HCT-15): 150 nM | IC50 (SK-MEL-2): 19 nM | IC50 (SK-OV-3): 470 nM | IC50 (XF498): 38 nM

SMILES: CC1(C)O[C@H]2CC(=O)OC[C@]23[C@H]2CC[C@@]4(C)[C@H](C5=CC(=O)OC5O)OC(=O)[C@H]5O[C@]54[C@]2(C)C(=O)C[C@@H]13 (stereo partly drawn)
IC50 [5]: 22000 nM

SMILES: C=C1CC[C@@H]2[C@](C)(COC(=O)CN(C)c3ccc([N+](=O)[O-])c4nonc34)[C@H](O)CC[C@@]2(C)[C@@H]1C/C=C1/C(=O)OC[C@H]1OC(C)=O
IC50 (A2058): 4500 nM | IC50 (HT-29): 12000 nM | IC50 (MDA-MB-231 [6]): 9800 nM

SMILES: C[C@@H]1C(=O)O[C@H]2[C@H](O)[C@]34[C@@H]5OC(=O)[C@]3(O[C@@H]3OC(=O)[C@H](O)[C@@]34[C@H](C(C)(C)C)[C@H]5O)[C@@]12O
IC50 [7]: 7500 nM | IC50 [8]: 17000 nM

SMILES: C[C@H](CO)[C@H]1OC(=O)C=C2[C@@]3(C)[C@H](O)CC[C@]4(C)C(=O)O[C@H]([C@H]5O[C@@]251)[C@H]34
IC50 (P388 [9]): 2100 nM

IC50 (MCF7 [10]): 55000 nM | IC50 (MDA-MB-435): 119000 nM
SMILES: CC1(C)O[C@H]2CC(=O)OC[C@]23[C@H]2CC[C@@](C)([C@@H](O[C@H]4O[C@H](CO)[C@@H](O)[C@H](O)[C@H]4O)c4ccoc4)[C@@]4(O[C@@H]4C(=O)O)[C@]2(C)C(=O)C[C@@H]13
IC50 [5]: 20000 nM

SMILES: CC1(C)O[C@H]2CC(=O)OC[C@]23[C@H]2CC[C@@]4(C)[C@H](C5=CC(O)OC5=O)OC(=O)[C@H]5O[C@]54[C@]2(C)C(=O)C[C@@H]13 (stereo partly drawn)
IC50 [5]: 18000 nM

SMILES: CC(=O)OC1C(=O)[C@@H]2[C@@]34COC(O)[C@@](C)([C@H](OC(C)=O)C[C@@H]3O)[C@@H]4C[C@@H](O)[C@@]2(C)[C@@]23O[C@@H]2C[C@@H](c2ccoc2)[C@]13C (stereo partly drawn)
IC50 (A549 [4]): 17 nM | IC50 (HCT-15): 70 nM | IC50 (SK-MEL-2): 1.2 nM | IC50 (SK-OV-3): 35 nM | IC50 (XF498): 12 nM

IC50 (A549 [11]): 1400 nM | IC50 (A-431): 1700 nM
SMILES: C[C@H](CO)[C@H]1OC(=O)C=C2[C@@]13O[C@@H]3[C@H]1OC(=O)[C@@]3(C)C[C@@H](O)C[C@@]2(C)[C@@H]13
IC50 [12]: 1400 nM

SMILES: C/C1=C\CC[C@@]2(C)O[C@H]2[C@H]2OC(=O)C(CNC(Cc3ccc(N(CCCl)CCCl)cc3)C(=O)O)[C@@H]2CC1 (stereo partly drawn)
IC50 (HepG2 [13]): 260 nM | IC50 (MCF7 [14]): 1800 nM

SMILES: CC(C)(O)[C@]12O[C@H]1[C@@H]1O[C@]13[C@]1(O[C@H]1C[C@H]1C4=C(CC[C@@]13C)C(=O)OC4)[C@@H]2O
IC50 (BGC-823): 200 nM | IC50 (HCT-116): 390 nM | IC50 (HepG2 [15]): 770 nM

SMILES: C[C@@H]1C(=O)O[C@H]2C[C@@]34[C@H]5C[C@@H](C(C)(C)C)[C@]36[C@@H](OC(=O)[C@@H]6O)O[C@@]4(C(=O)O5)[C@]21O [GINKGOLIDE A]
IC50 [7]: 580 nM | IC50 [8]: 940 nM

IC50 (MCF7 [10]): 4300 nM | IC50 (MDA-MB-435): 26000 nM
SMILES: CC1(C)O[C@H]2CC(=O)OC[C@]23[C@H]2CC[C@@]4(C)[C@H](c5ccoc5)OC(=O)[C@H]5O[C@]54[C@]2(C)C(=O)C[C@@H]13 [LIMONIN]
IC50 [5]: 42000 nM

SMILES: CC(C)[C@]12O[C@H]1[C@@H]1O[C@]13[C@]1(O[C@H]1C[C@H]1C4=C(C(=O)OC4)[C@@H](O)C[C@@]13C)[C@@H]2O [TRIPDIOLIDE]
IC50 (BGC-823): 910 nM | IC50 (HCT-116): 730 nM | IC50 (HepG2 [15]): 1700 nM
